Experimental data reported in ChEMBL document CHEMBL1153884, “Oligonucleotide-polyamine conjugates: influence of length and position of 2'-attached polyamines on duplex stability and antisense effect” (2009).

Tests used:
Nucleic Acid [1] = assay: Duplex stability of DNA counter strand assessed as melting temperature; format: nucleic-acid assay
Nucleic Acid [2] = assay: Duplex stability of RNA counter strand assessed as melting temperature; format: nucleic-acid assay

| Compound | Tm (Nucleic Acid [1]) | Tm (Nucleic Acid [2]) |
| --- | --- | --- |
| Cc1cn([C@H]2C[C@H](OP(O)(=S)OC[C@H]3O[C@@H](n4cnc5c(N)ncnc54)[C@H](O)[C@@H]3OP(O)(=S)OC[C@H]3O[C@@H](n4ccc(N)nc4=O)[C@H](O)[C@@H]3OP(O)(=S)OC[C@H]3O[C@@H](n4ccc(N)nc4=O)[C@H](O)[C@@H]3OP(O)(=S)OC[C@H]3O[C@@H](n4cnc5c(=O)[nH]c(N)nc54)[C@H](O)[C@@H]3OP(O)(=S)OC[C@H]3O[C@@H](n4ccc(N)nc4=O)[C@H](O)[C@@H]3OP(O)(=S)OC[C@H]3O[C@@H](n4cnc5c(=O)[nH]c(N)nc54)[C@H](O)[C@@H]3OP(O)(=S)OC[C@H]3O[C@@H](n4ccc(=O)[nH]c4=O)[C@H](NCCCNCCCCNCCCN)[C@@H]3OP(O)(=S)OC[C@H]3O[C@@H](n4cnc5c(=O)[nH]c(N)nc54)[C@H](O)[C@@H]3OP(O)(=S)OC[C@H]3O[C@@H](n4ccc(N)nc4=O)[C@H](O)[C@@H]3OP(O)(=S)OC[C@H]3O[C@@H](n4cnc5c(=O)[nH]c(N)nc54)[C@H](O)[C@@H]3OP(O)(=S)OC[C@H]3O[C@@H](n4cnc5c(N)ncnc54)[C@H](O)[C@@H]3OP(O)(=S)OC[C@H]3O[C@@H](n4ccc(N)nc4=O)[C@H](O)[C@@H]3OP(O)(=S)OC[C@H]3O[C@@H](n4ccc(N)nc4=O)[C@H](O)[C@@H]3OP(O)(=S)OC[C@H]3O[C@@H](n4ccc(N)nc4=O)[C@H](O)[C@@H]3OP(O)(=S)OC[C@H]3O[C@@H](n4cc(C)c(=O)[nH]c4=O)C[C@@H]3OP(O)(=S)OC[C@H]3O[C@@H](n4ccc(N)nc4=O)[C@H](O)[C@@H]3OP(O)(=S)OC[C@H]3O[C@@H](n4ccc(=O)[nH]c4=O)[C@H](NCCCNCCCCNCCCN)[C@@H]3O)[C@@H](CO)O2)c(=O)[nH]c1=O (some centres not stated) | 66.8 °C | 53 °C |
| Cc1cn([C@H]2C[C@H](OP(=O)(O)OC[C@H]3O[C@@H](n4cnc5c(N)ncnc54)[C@H](O)[C@@H]3OP(=O)(O)OC[C@H]3O[C@@H](n4ccc(N)nc4=O)[C@H](O)[C@@H]3OP(=O)(O)OC[C@H]3O[C@@H](n4ccc(N)nc4=O)[C@H](O)[C@@H]3OP(=O)(O)OC[C@H]3O[C@@H](n4cnc5c(=O)[nH]c(N)nc54)[C@H](O)[C@@H]3OP(=O)(O)OC[C@H]3O[C@@H](n4ccc(N)nc4=O)[C@H](O)[C@@H]3OP(=O)(O)OC[C@H]3O[C@@H](n4cnc5c(=O)[nH]c(N)nc54)[C@H](O)[C@@H]3OP(=O)(O)OC[C@H]3O[C@@H](n4cc(C)c(=O)[nH]c4=O)C[C@@H]3OP(=O)(O)OC[C@H]3O[C@@H](n4cnc5c(=O)[nH]c(N)nc54)[C@H](O)[C@@H]3OP(=O)(O)OC[C@H]3O[C@@H](n4ccc(N)nc4=O)[C@H](O)[C@@H]3OP(=O)(O)OC[C@H]3O[C@@H](n4cnc5c(=O)[nH]c(N)nc54)[C@H](O)[C@@H]3OP(=O)(O)OC[C@H]3O[C@@H](n4cnc5c(N)ncnc54)[C@H](O)[C@@H]3OP(=O)(O)OC[C@H]3O[C@@H](n4ccc(N)nc4=O)[C@H](O)[C@@H]3OP(=O)(O)OC[C@H]3O[C@@H](n4ccc(N)nc4=O)[C@H](O)[C@@H]3OP(=O)(O)OC[C@H]3O[C@@H](n4ccc(N)nc4=O)[C@H](O)[C@@H]3OP(=O)(O)OC[C@H]3O[C@@H](n4cc(C)c(=O)[nH]c4=O)C[C@@H]3OP(=O)(O)OC[C@H]3O[C@@H](n4ccc(N)nc4=O)[C@H](O)[C@@H]3OP(=O)(O)OC[C@H]3O[C@@H](n4cc(C)c(=O)[nH]c4=O)C[C@@H]3O)[C@@H](CO)O2)c(=O)[nH]c1=O | 79 °C | 65.3 °C |
| Cc1cn([C@H]2C[C@H](OP(O)(=S)OC[C@H]3O[C@@H](n4cnc5c(N)ncnc54)[C@H](O)[C@@H]3OP(O)(=S)OC[C@H]3O[C@@H](n4ccc(N)nc4=O)[C@H](O)[C@@H]3OP(O)(=S)OC[C@H]3O[C@@H](n4ccc(N)nc4=O)[C@H](O)[C@@H]3OP(O)(=S)OC[C@H]3O[C@@H](n4cnc5c(=O)[nH]c(N)nc54)[C@H](O)[C@@H]3OP(O)(=S)OC[C@H]3O[C@@H](n4ccc(N)nc4=O)[C@H](O)[C@@H]3OP(O)(=S)OC[C@H]3O[C@@H](n4cnc5c(=O)[nH]c(N)nc54)[C@H](O)[C@@H]3OP(O)(=S)OC[C@H]3O[C@@H](n4cc(C)c(=O)[nH]c4=O)C[C@@H]3OP(O)(=S)OC[C@H]3O[C@@H](n4cnc5c(=O)[nH]c(N)nc54)[C@H](O)[C@@H]3OP(O)(=S)OC[C@H]3O[C@@H](n4ccc(N)nc4=O)[C@H](O)[C@@H]3OP(O)(=S)OC[C@H]3O[C@@H](n4cnc5c(=O)[nH]c(N)nc54)[C@H](O)[C@@H]3OP(O)(=S)OC[C@H]3O[C@@H](n4cnc5c(N)ncnc54)[C@H](O)[C@@H]3OP(O)(=S)OC[C@H]3O[C@@H](n4ccc(N)nc4=O)[C@H](O)[C@@H]3OP(O)(=S)OC[C@H]3O[C@@H](n4ccc(N)nc4=O)[C@H](O)[C@@H]3OP(O)(=S)OC[C@H]3O[C@@H](n4ccc(N)nc4=O)[C@H](O)[C@@H]3OP(O)(=S)OC[C@H]3O[C@@H](n4cc(C)c(=O)[nH]c4=O)C[C@@H]3OP(O)(=S)OC[C@H]3O[C@@H](n4ccc(N)nc4=O)[C@H](O)[C@@H]3OP(O)(=S)OC[C@H]3O[C@@H](n4ccc(=O)[nH]c4=O)[C@H](NCCCNCCCCNCCCN)[C@@H]3O)[C@@H](CO)O2)c(=O)[nH]c1=O (some centres not stated) | 74.3 °C | 53.2 °C |
| Cc1cn([C@@H]2O[C@H](CO)CN2c2ncnc3c2ncn3[C@@H]2O[C@H](COP(=O)(O)O[C@H]3[C@@H](O)[C@H](n4cnc5c(=O)[nH]c(N)nc54)O[C@@H]3COP(=O)(O)O[C@H]3[C@@H](O)[C@H](n4ccc(N)nc4=O)O[C@@H]3COP(=O)(O)O[C@H]3[C@@H](O)[C@H](n4cnc5c(=O)[nH]c(N)nc54)O[C@@H]3COP(=O)(O)O[C@H]3C[C@H](n4cc(C)c(=O)[nH]c4=O)O[C@@H]3COP(=O)(O)O[C@H]3[C@@H](O)[C@H](n4cnc5c(=O)[nH]c(N)nc54)O[C@@H]3COP(=O)(O)O[C@H]3[C@@H](O)[C@H](n4ccc(N)nc4=O)O[C@@H]3COP(=O)(O)O[C@H]3[C@@H](O)[C@H](n4cnc5c(=O)[nH]c(N)nc54)O[C@@H]3COP(=O)(O)O[C@H]3[C@@H](O)[C@H](n4ccc(N)nc4=O)O[C@@H]3COP(=O)(O)O[C@H]3[C@@H](O)[C@H](n4ccc(N)nc4=O)O[C@@H]3COP(=O)(O)O[C@H]3[C@@H](O)[C@H](n4cnc5c(N)ncnc54)O[C@@H]3COP(=O)(O)O[C@H]3[C@@H](NCCCNCCCCNCCCN)[C@H](n4ccc(=O)[nH]c4=O)O[C@@H]3CO)[C@@H](OP(=O)(O)OC[C@H]3O[C@@H](n4ccc(N)nc4=O)[C@H](O)[C@@H]3OP(=O)(O)OC[C@H]3O[C@@H](n4ccc(N)nc4=O)[C@H](O)[C@@H]3OP(=O)(O)OC[C@H]3O[C@@H](n4ccc(N)nc4=O)[C@H](O)[C@@H]3OP(=O)(O)OC[C@H]3O[C@@H](n4cc(C)c(=O)[nH]c4=O)C[C@@H]3OP(=O)(O)OC[C@H]3O[C@@H](n4ccc(N)nc4=O)[C@H](O)[C@@H]3OP(=O)(O)OC[C@H]3O[C@@H](n4ccc(=O)[nH]c4=O)[C@H](NCCCNCCCCNCCCN)[C@@H]3O)[C@H]2O)c(=O)[nH]c1=O | 79.7 °C | 61.8 °C |

More lines, now with the values ahead:

| Tm (Nucleic Acid [1]) | Tm (Nucleic Acid [2]) | Compound |
| --- | --- | --- |
| 70.6 °C | 45.8 °C | Cc1cn([C@@H]2O[C@H](COP(=O)(O)O[C@H]3[C@@H](O)[C@H](n4ccc(N)nc4=O)O[C@@H]3COP(=O)(O)O[C@H]3[C@@H](O)[C@H](n4ccc(N)nc4=O)O[C@@H]3COP(=O)(O)O[C@H]3[C@@H](O)[C@H](n4ccc(N)nc4=O)O[C@@H]3COP(=O)(O)O[C@H]3[C@@H](O)[C@H](n4cnc5c(N)ncnc54)O[C@@H]3COP(=O)(O)O[C@H]3[C@@H](O)[C@H](n4cnc5c(=O)[nH]c(N)nc54)O[C@@H]3COP(=O)(O)O[C@H]3[C@@H](O)[C@H](n4ccc(N)nc4=O)O[C@@H]3COP(=O)(O)O[C@H]3[C@@H](O)[C@H](n4cnc5c(=O)[nH]c(N)nc54)O[C@@H]3COP(=O)(O)O[C@H]3[C@@H](NCCCNCCCCNCCCN)[C@H](n4ccc(=O)[nH]c4=O)O[C@@H]3COP(=O)(O)O[C@H]3[C@@H](O)[C@H](n4cnc5c(=O)[nH]c(N)nc54)O[C@@H]3COP(=O)(O)O[C@H]3[C@@H](O)[C@H](n4ccc(N)nc4=O)O[C@@H]3COP(=O)(O)O[C@H]3[C@@H](O)[C@H](n4cnc5c(=O)[nH]c(N)nc54)O[C@@H]3COP(=O)(O)O[C@H]3[C@@H](O)[C@H](n4ccc(N)nc4=O)O[C@@H]3COP(=O)(O)O[C@H]3[C@@H](O)[C@H](n4ccc(N)nc4=O)O[C@@H]3COP(=O)(O)O[C@H]3[C@@H](O)[C@H](n4cnc5c(N)ncnc54)O[C@@H]3COP(=O)(O)O[C@H]3C[C@H](n4cc(C)c(=O)[nH]c4=O)O[C@@H]3CO)[C@@H](OP(=O)(O)OC[C@H]3O[C@@H](n4ccc(N)nc4=O)[C@H](O)[C@@H]3OP(=O)(O)OC[C@H]3O[C@@H](n4ccc(=O)[nH]c4=O)[C@H](NCCCNCCCCNCCCN)[C@@H]3O)[C@H]2NCCCNCCCCNCCCN)c(=O)[nH]c1=O |
| 74.5 °C | 57.8 °C | Cc1cn([C@H]2C[C@H](OP(=O)(O)OC[C@H]3O[C@@H](n4cnc5c(N)ncnc54)[C@H](O)[C@@H]3OP(=O)(O)OC[C@H]3O[C@@H](n4ccc(N)nc4=O)[C@H](O)[C@@H]3OP(=O)(O)OC[C@H]3O[C@@H](n4ccc(N)nc4=O)[C@H](O)[C@@H]3OP(=O)(O)OC[C@H]3O[C@@H](n4cnc5c(=O)[nH]c(N)nc54)[C@H](O)[C@@H]3OP(=O)(O)OC[C@H]3O[C@@H](n4ccc(N)nc4=O)[C@H](O)[C@@H]3OP(=O)(O)OC[C@H]3O[C@@H](n4cnc5c(=O)[nH]c(N)nc54)[C@H](O)[C@@H]3OP(=O)(O)OC[C@H]3O[C@@H](n4ccc(=O)[nH]c4=O)[C@H](NCCCNCCCCNCCCN)[C@@H]3OP(=O)(O)OC[C@H]3O[C@@H](n4cnc5c(=O)[nH]c(N)nc54)[C@H](O)[C@@H]3OP(=O)(O)OC[C@H]3O[C@@H](n4ccc(N)nc4=O)[C@H](O)[C@@H]3OP(=O)(O)OC[C@H]3O[C@@H](n4cnc5c(=O)[nH]c(N)nc54)[C@H](O)[C@@H]3OP(=O)(O)OC[C@H]3O[C@@H](n4cnc5c(N)ncnc54)[C@H](O)[C@@H]3OP(=O)(O)OC[C@H]3O[C@@H](n4ccc(N)nc4=O)[C@H](O)[C@@H]3OP(=O)(O)OC[C@H]3O[C@@H](n4ccc(N)nc4=O)[C@H](O)[C@@H]3OP(=O)(O)OC[C@H]3O[C@@H](n4ccc(N)nc4=O)[C@H](O)[C@@H]3OP(=O)(O)OC[C@H]3O[C@@H](n4cc(C)c(=O)[nH]c4=O)C[C@@H]3OP(=O)(O)OC[C@H]3O[C@@H](n4ccc(N)nc4=O)[C@H](O)[C@@H]3OP(=O)(O)OC[C@H]3O[C@@H](n4ccc(=O)[nH]c4=O)[C@H](NCCCNCCCCNCCCN)[C@@H]3O)[C@@H](CO)O2)c(=O)[nH]c1=O |
